Laboratory results published in US4837342A, “Prostacyclin analogue, and blood circulation improving agent and anti-ulcer composition containing it as active ingredient” (Sagami Chemical Research Center, priority 1986, dated 1989).
“And” between values parts separate entries of the source, which are not always exact repeats. Equal entries are not always repeated.

Tests used:
[1] = tested on: Blood platelet (ADP agglutination); assay: Blood platelet agglutination inhibiting activity (ADP-induced), washed rabbit platelet suspension; type: cell-based, rabbit (Japanese white male rabbits); conditions: for IC50: Oryctolagus cuniculus, Platelet, ADP 10 μM, concentration suppressing agglutination to 50%, read-out: Platelet agglutination inhibiting activity ED50, ADP agglutination; for Activity ratio, platelet agglutination inhibiting activity, ADP agglutination: relative to prostacyclin = 1
Experimental: (§1) Blood platelet aggutination inhibiting activity
(§2) Japanese white male rabbits having a weight of from 2.0 to 2.5 kg were used.
(§3) Under anesthesia with sodium Pentobarbital, blood was sampled from the carotid artery, and mixed with a 1/7 volume of an anticoagulant citric acid dextrose solution. Then, the mixture was subjected to centrifugal separation at 140×g for 15 minutes, whereupon the supernatant (platelet rich plasma:PRP) was obtained. PRP was subjected to centrifugal separation at 1,300×g for 7 minutes. The blood platelet pellets thus obtained were washed with a HEPES buffer solution (pH 6.5) for washing blood platelets, and subjected to centrifugal separation at 1,300×g for 7 minutes. The blood platelet pellets washed twice under such condition, were suspended in a suspending liquid (a buffer solution for washing blood platelets, which contains 0.1% of human fibrinogen, 1.8 mM of CaCl2 and 1.2 mM of MgCl2) to obtain a blood platelet suspension having a concentration of from 5×10^8 to 8×10^8 platelets/ml.
(§4) The platelet agglutination ability was measured by means of an agglutination meter. To 380 μl of the platelet suspension, 10 μl of a test compound or a solvent as the control, was added. Three minutes later, 10 μl of a platelet agglutinating substance (10 μM of ADP or 1 μg/ml of collagen, as the final concentration) was added thereto to induce agglutination.
(§5) The blood platelet agglutination inhibiting activity of each test compound was represented by ED50 (i.e. the concentration of the test compound where the platelet agglutination is suppressed to 50%).

[2] = tested on: Blood platelet (Collagen agglutination); assay: Blood platelet agglutination inhibiting activity (collagen-induced), washed rabbit platelet suspension; type: cell-based, rabbit (Japanese white male rabbits); conditions: for IC50: Oryctolagus cuniculus, Platelet, collagen 1 μg/ml, concentration suppressing agglutination to 50%, read-out: Platelet agglutination inhibiting activity ED50, Collagen agglutination; for Activity ratio, platelet agglutination inhibiting activity, Collagen agglutination: relative to prostacyclin = 1
Experimental: as §1, §2, §3, §4, §5

coronary artery = assay: Blood flow-increasing activity in the coronary artery, anesthetized dog; type: in vivo, crossbred adult dog; conditions: for ED50: Canis lupus familiaris, dog, near arterial injection, reactive hyperemia = 100%; for Activity ratio, blood flow-increasing activity in coronary artery: relative to prostacyclin = 1
Experimental: Blood flow-increasing activity in the coronary artery
A crossbred adult dog having a weight of from 9 to 15 kg was anesthetized with sodium Pentobarbital and subjected to thoractomy under artificial respiration. After pericardiectomy, the frontal descending branch of the left coronary artery was separated from the surrounding tissues, and a blood flow-measuring probe was attached thereto under sodium heparin treatment. The coronary blood flow was measured by using an electromagnetic flow meter. The test compound was injected into the coronary artery by near arterial injection, and the blood flow-increasing activity in the coronay artery was represented by ED50 (i.e. the dose of a test compound at which the blood flow increases by 50%, as evaluated on the basis that the blood flow increase by the reactive hyperemia caused by releasing the blood flow of the coronary artery after blocking it for 15 seconds, is evaluated to be 100%).

vertebral artery = assay: Blood flow-increasing activity in the vertebral artery, anesthetized dog; type: in vivo, crossbred adult dog; conditions: for ED50: Canis lupus familiaris, papaverine hydrochloride 100 μg/kg = 100%; for Activity ratio, blood flow-increasing activity in vertebral artery: relative to prostacyclin = 1
Text: Blood flow-increasing activity in the vertebral artery
A made or female crossbred adult dog having a weight of from 8 to 13 kg was anesthetized by intravenous administration of sodium Pentobarbital and subjected to thoractomy along the mediam line under artificial respiration to expose the left vertebral artery. Under sodium peparin treatment, a polyethylene cannula was inserted into the vertebral artery, and a blood flow-measuring probe was attached to its other end, to which a blood circulation tube led from the left femoral artery was connected, whereby the blood flow in the vertebral artery was measured by using an electromagnetic flow meter. The test compound was injected into the vertebral artery by near arterial injection, and the blood flow-increasingactivity in the vertebral artery was represented by ED50 (i.e. the dose of a test compound at which the blood flow increases by 50%, as evaluated on the basis that the blood flow increase (representing substantially the maximum reaction) by the administration of 100 μg/kg papaverine hydrochloride into the vertebral artery, is evaluated to be 100%).

femoral artery = assay: Blood flow-increasing activity in the femoral artery, anesthetized dog; type: in vivo, crossbred adult dog; conditions: for ED50: Canis lupus familiaris, dog, near arterial injection, papaverine hydrochloride 100 μg/kg = 100%; for Activity ratio, blood flow-increasing activity in femoral artery: relative to prostacyclin = 1
Experimental: Blood flow-increasing activity in the femoral artery
A male or female crossbred adult dog having a weight of from 8 to 13 kg, was anesthetized by intravenous administration of sodium Pentobarbital. Then, a tracheal cannula was inserted, and artificial respiration was conducted. The blood flow in the femoral artery was measured by inserting the annula into the left femoral artery under sodium heparin treatment and providing a blood flow measuring probe at it other end, and by using an electromagnetic flow meter. The test compound was injected into the femoral artery by near arterial injection, and the blood flow-increasing activity in the femoral artery was represented by ED50 (i.e. the dose of a test compound at which the blood flow increases by 50%, as evaluated on the bais that the blood flow increase (representing substantially the maximum reaction) by the administration of 100 μg/kg of papaveline hydrochloride into the femoral artery, is evaluted to be 100%).

diastolic blood pressure = assay: Hypotensive activity, anesthetized dog; type: in vivo, crossbred adult dog; conditions: for Hypotensive activity, blood pressure decrease: at 10 μg/kg i.v.; for Activity ratio, hypotensive activity: relative to prostacyclin = 1
Experimental: A male or female crossbred adult dog having a weight of from 9 to 14 kg was anesthetized by intraveous administration of sodium Pentobarbital. Then, the left carotid was exposed under artificial respiration, and the blood pressure was measured by using an electric blood pressure meter. […]

Ethanol ulcer = Ethanol ulcer inhibiting activity; type: in vivo, Male wister rats; conditions: rat; for ED50: po, P.O., 30 minutes before 99.5% ethanol
Experimental: Ethanol ulcer inhibiting activity
Male wister rats having a weight of from 170 to 270 g were put into individual cages and starved for 24 hours. During this starvation period, the rats were allowed to drink water freely. A test compound or PGE2 as a comparative compound was orally administered in an amount of 3, 10 or 30 μg/kg, and 30 minutes later, 1 ml of 99.5% ethanol was orally administered to each rat. One hour after the ethanol administration, each rat was filled by cervical vertebral luxation, and the stomach was taken out. A 1% formaline solution was injected into the stomach in an amount of about 8 ml, and the stomach was fixed in the formaline solution for 30 minutes. After the fixing, the stomach was severed along the greater curvature, and the mucous membrane surface of the stomach was gently washed with flowing water. Then, the total length of damages appearing on the gastric glandular portion was obtained and used as the ulcer index.
The ethanol ulcer inhibiting activity of a test compound was represented by ED50 (i.e. the dose of the test compound at which the ulcer was inhibited by 50% relative to the ulcer index of the non-treated group). To the non-treated group, the solvent was administered.

Hydrochloric acid ulcer = Hydrochloric acid ulcer inhibiting activity; type: in vivo, wister rats; conditions: rat; oral administration of 30 μg/kg; 0.6N hydrochloric acid; read-out: Hydrochloric acid ulcer inhibiting activity, Inhibiting rate
Experimental: Hydrochloric acid ulcer inhibiting activity
Male wister […] having a weight of from 190 to 240 g were used. The rats were starved in the same manner as in Test Example 6, and the test compounds and PGE2 were, respectively, orally administered in an amount of 30 μg/kg, and 30 minutes later, 1 ml of 0.6N hydrochloric acid was orally administered. Thirty minutes after the hydrochloric acid administration, each rat was killed by cervical vertebral luxation. Then, the stomach was taken out and fixed, and the ulcer index was obtained, in the same manner as in Test Example 6. The hydrochloric acid ulcer inhibiting activity of a test compound was represented by the inhibiting percentage (i.e. the percentage of the ulcer index of the treated group to the ulcer index of the non-treated group). To the non-treated group, the solvent was administered.

Indomethacine ulcer = Indomethacine ulcer inhibiting activity; type: in vivo, Male wister rats; conditions: rat; oral administration of 60 μg/kg twice
Text: Indomethacine ulcer inhibiting activity
Male wister rats having a weight of from 210 to 270 g were used. The rats were starved in the same manner as in Test Example 6. […] Three hours after the indomethacine administration, the test compound or PGE2 was again orally administered in the same amount. Six hours after the first administration of indomethacine, each rat was killed by cervical bertebral luxation. The stomach was taken out and fixed, and the ulcer index was obtained, in the same manner as in Test Example 6.
The indomethacine ulcer inhibiting activity of a test compound was represented by the inhibiting percentage (i.e. the inhibiting percentage of the ulcer index of the treated group to the ulcer index of the non-treated group). To the non-treated group, the solvent was administered.

ulcer = assay: Anti-ulcer activity (general statement); type: in vivo, animals; conditions: compared with typical PG such as PGE2
Text: On the basis of this discovery, a further research has been made for the application to the prevention and treatment of digestive organ ulcers, and have accomplished the present invention.

[3] = tested on: blood flow of various organs; assay: Blood flow increasing activity in various organs (general statement); conditions: in vivo
[4] = background; cited from earlier work

Structure (SMILES) | IC50 [1] | IC50 [2] | Activity ratio, platelet agglutination inhibiting activity, ADP agglutination [1] | Activity ratio, platelet agglutination inhibiting activity, Collagen agglutination [2] | ED50 (coronary artery) | Activity ratio, blood flow-increasing activity in coronary artery (coronary artery) | ED50 (vertebral artery; dog, near arterial injection) | Activity ratio, blood flow-increasing activity in vertebral artery (vertebral artery) | ED50 (femoral artery) | Activity ratio, blood flow-increasing activity in femoral artery (femoral artery) | Hypotensive activity, blood pressure decrease (diastolic blood pressure; dog) | Activity ratio, hypotensive activity (diastolic blood pressure) | ED50 (Ethanol ulcer) | inhibition in vivo at 0.03 mg/kg (Hydrochloric acid ulcer) | Indomethacine ulcer inhibiting activity, Inhibiting rate (Indomethacine ulcer) | Anti-ulcer activity (in words) (ulcer) | Activity to increase the blood flow (in words) [3] | further results
CCC#CCC(C)[C@H](O)/C=C/[C@@H]1[C@H]2CCC(CCCC(=O)O)=C[C@H]2C[C@H]1O (stereo partly drawn) [(b), 3-(3-carboxypropyl)-7-exo-(3α-hydroxy-4,8-dimethyl-trans-1-octen-6-ynyl)-8-endo-hydroxy-cis-bicyclo[4,3,0]nona-2-ene] | 77 nM | 44 nM | 1/27 | 1/12 | 1.2 µg/kg | 1/120 | 0.75 µg/kg | 1/17 | 0.35 µg/kg | 1/15 | 27.9 mmHg | about 1/135 | 2.79 µg/kg | 54.8% | 99.4% | comparable or superior to typical PG having anti-ulcer activities, such as PGE2 | activity to increase the blood flow of the vertebral artery, coronary artery and femoral artery | 
CCCCC[C@H](O)/C=C/[C@@H]1[C@H]2CCC(C=CCCC(=O)O)=C[C@H]2C[C@H]1O [(c), 3-(4-carboxy-1-butenyl)-7-exo-(3α-hydroxy-trans-1-octenyl)-8-endo-hydroxy-cis-bicyclo[4,3,0]nona-2-ene] | 50 nM | 73 nM | 1/17 | 1/21 | 2.1 µg/kg | 1/210 |  |  | 0.56 µg/kg | 1/23 | 27.9 mmHg | about 1/125 and 1/125 |  | 13.5% |  |  | activity to increase the blood flow of various organs to a proper extent | Blood flow increase in vertebral artery (vertebral artery; dog, at 3 μg/kg, near arterial injection): 36.9%; Ethanol ulcer inhibition (Ethanol ulcer; oral administration of 30 μg/kg): 31.7%; Indomethacine ulcer inhibition (in words) (Indomethacine ulcer): Certain inhibition
CCCCC[C@H](O)/C=C/[C@@H]1[C@H]2CC(CCCCC(=O)O)=C[C@H]2C[C@H]1O [isocarbacyclin, 9(O)-methano-Δ^6(9α) -PGI1] |  |  |  |  |  |  |  |  |  |  |  |  |  |  |  |  |  | Chemical stability (in words) [4]: adequately chemically stable

The next lines start with results.

IC50 [1] | IC50 [2] | Structure (SMILES) | Activity ratio, platelet agglutination inhibiting activity, ADP agglutination [1] | Activity ratio, platelet agglutination inhibiting activity, Collagen agglutination [2] | ED50 (coronary artery) | Activity ratio, blood flow-increasing activity in coronary artery (coronary artery) | ED50 (vertebral artery; dog, near arterial injection) | Activity ratio, blood flow-increasing activity in vertebral artery (vertebral artery) | ED50 (femoral artery) | Activity ratio, blood flow-increasing activity in femoral artery (femoral artery) | Hypotensive activity, blood pressure decrease (diastolic blood pressure; dog) | Activity ratio, hypotensive activity (diastolic blood pressure) | ED50 (Ethanol ulcer) | inhibition in vivo at 0.03 mg/kg (Hydrochloric acid ulcer) | Indomethacine ulcer inhibiting activity, Inhibiting rate (Indomethacine ulcer) | Anti-ulcer activity (in words) (ulcer) | Activity to increase the blood flow (in words) [3] | further results
8.7 nM |  | CCC#CCC(C)[C@H](O)/C=C/[C@@H]1[C@H]2CCC(C=CCCC(=O)O)=C[C@H]2C[C@H]1O (stereo partly drawn) [(d), 3-(4-carboxy-1-butenyl)-7-exo-(3α-hydroxy-4,8-dimethyl-trans-1-octen-6-ynyl)-8-endo-hydroxy-cis-bicyclo[4,3,0]nona-2-ene] | 1/3 |  | 0.38 µg/kg | 1/38 | 1.9 µg/kg | 1/43 | 0.9 µg/kg | 1/38 |  | 1/36 | 2.55 µg/kg | 24.1% | 73.5% | comparable or superior to typical PG having anti-ulcer activities, such as PGE2 |  | ED (50 mmHg) (diastolic blood pressure; Canis lupus familiaris, iv, dog, femoral vein, Table 1, read-out: Hypotensive activity ED50 (dose reducing diastolic blood pressure by 50 mmHg)): 8.7 µg/kg
23 nM |  | CCC#CCC(C)[C@H](O)/C=C/[C@@H]1[C@H]2CCC(CCCCC(=O)O)=C[C@H]2C[C@H]1O (stereo partly drawn) [(f), 3-(4-carboxybutyl)-7-exo-(3α-hydroxy-4,8-dimethyl-trans-1-octen-6-ynyl)-8-endo-hydroxy-cis-bicyclo[4,3,0]nona-2-ene] | 1/8 | 1/8 | 1.75 µg/kg | 1/269 | 0.57 µg/kg | 1/13 | 0.56 µg/kg | 1/23 | 33 mmHg | 1/77 | 2.92 µg/kg | 20.5% | 38.8% | comparable or superior to typical PG having anti-ulcer activities, such as PGE2 |  | 
